Laboratory results as given in patent US20170058314A1, “NOVEL METHODOLOGY FOR IDENTIFYING ANTI-PERSISTER ACTIVITY AND ANTIMICROBIAL SUSCEPTIBILITY FOR BORRELIA BURGDORFERI AND OTHER BACTERIA” (priority 2014, published 2017).

Columns and labels:
[1] = system: B. burgdorferi log and stationary phase cultures; assay: epi-fluorescence microscope counting after antibiotic exposure (persister frequency, planktonic forms); type: cell-based, Borrelia burgdorferi
Description: Specimens were examined on a Nikon Eclipse E800 microscope equipped with differential interference contrast (DIC) and epi-fluorescence illumination, and recorded with a Spot slider color camera. Cell proliferation assays were performed by direct counting using a bacterial counting chamber (Hausser Scientific Partnership) and DIC microscopy. SYBR Green I/PI assay was performed to assess the viability of B. burgdorferi. The ratio of live (green) and dead (red) B. burgdorferi was calculated by counting these cells using a bacterial counting chamber and epi-fluorescence microscopy. The three representative images of every sample were captured for quantitative analysis. Image Pro-Plus software was applied for measuring the biomass (fluorescence intensity) of different forms (spirochetes, round body, and microcolony) of B. burgdorferi as previously described (Shopov and Williams, 2000).
To qualitatively determine the effect of antibiotics, 10 μL of each compound from the pre-diluted plate or pre-diluted stock was added to stationary phase B. burgdorferi culture in the 96-well plate. The final volume per well was adjusted to 100 μL at a concentration of 10 μg/mL for each antibiotic. Plates were sealed and placed in a 33° C. incubator for 7 days. The SYBR Green I/PI viability assay was used to assess the live and dead cells after antibiotic exposure as described (Feng, Wang, Shi, et al., 2014). Briefly, 10 μL of SYBR Green I (10,000×stock, Invitrogen) was mixed with 30 μL propidium iodide (PI, 20 mM) into 1.0 mL of sterile dH2O. Then, 10 μL of staining mixture was added to each well and mixed thoroughly. The plates were incubated at room temperature in the dark for 15 minutes followed by plate reading at excitation wavelength at 485 nm and the fluorescence intensity at 535 nm (green emission) and 635 nm (red emission) in microplate reader (HTS 7000 plus Bio Assay Reader, PerkinElmer Inc., USA). With least-square fitting analysis, the regression equation and regression curve of the relationship between percentage of live bacteria and green/red fluorescence ratios was obtained. The regression equation was used to calculate the percentage of live cells in each well of the 96-well plate.
Therefore, the frequency of B. burgdorferi persisters in log phase and stationary phase cultures was assessed using the SYBR Green I/PI viability assay after exposure of the cultures to antimicrobials. E. coli culture was used as a control after exposure to antibiotics to validate the SYBR Green I/PI viability assay for persister frequency assessment.

[2] = system: stationary phase B. burgdorferi persisters (strain B31); assay: NCI compound library rescreen, epifluorescence microscope counting; conditions: Borreliella burgdorferi, 168 h
[3] = system: log phase and stationary phase B. burgdorferi culture; assay: Antibiotic exposure assay, SYBR Green I/PI (drugs alone and combinations)
Method in brief: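 Stationary-phase or round-body B. burgdorferi exposed 7 days at 33 °C to drugs alone or combined at 10 μg/mL each (single-compound screen: 50 μM final). Viability by SYBR Green I/PI, ex 485, em 535/635 nm; percent live from regression of green/red ratio, corrected by direct microscopy counting.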

[4] = system: stationary phase B. burgdorferi persisters (strain B31); assay: NCI compound library screen, SYBR Green I/PI assay (plate reader)
[5] = system: stationary phase B. burgdorferi persisters (strain B31); assay: epifluorescence microscope counting after SYBR Green I/PI staining, FDA drug screen; conditions: Borreliella burgdorferi, 168 h, read-out: Residual viable cells (epifluorescence microscope counting)
[6] = system: round body form of B. burgdorferi; assay: SYBR Green I/PI assay on amoxicillin-induced round body form
[7] = system: stationary phase B. burgdorferi persisters (strain B31); assay: SYBR Green I/PI viability assay (plate reader), FDA-approved drug library screen
[8] = system: stationary phase B. burgdorferi; assay: Subculture test of drug-treated stationary phase B. burgdorferi; type: cell-based, Borrelia burgdorferi; conditions: 10 μg/mL
Description: Seven-day-old B. burgdorferi culture (1×10^7 spirochetes/mL) (500 μL) was treated with drugs or drug combinations in Eppendorf tubes. After incubation at 33° C. for 7 days without shaking, the cells were collected by centrifugation and rinsed with 1 mL fresh BSK-H medium followed by resuspension in 500 μL fresh BSK-H medium without antibiotics. Then 50 μL of cell suspension was transferred to 1 mL fresh BSK-H medium for subculture at 33° C. for 2 weeks. Cell proliferation was assessed using SYBR Green I/PI assay and bacterial counting chamber (Hausser Scientific Partnership) by microscopy as described above.

[9] = 10 μg/mL drugs or combinations, 7 days
[10] = 50 μM, 7 days, stationary phase
[11] = 7 days treatment, then subculture

With `C[C@H]1c2cccc(O)c2C(=O)C2=C(O)[C@]3(O)C(=O)C(C(N)=O)=C(O)[C@@H](N(C)C)[C@@H]3[C@@H](O)[C@@H]21` [Doxycycline] the “persister frequency (percentage of live cells after antibiotic treatment, in brackets)” value ([1]; 3-day log phase culture) was “(6.4%)”, the “persister frequency (in brackets)” value ([1]; 7-day stationary phase culture) was “(24%)” and the “persister frequency (in brackets)” value ([1]; 10-day stationary phase culture) was “(~25%)”. The “planktonic form cells remaining green (live)” value ([1]; 10-day-old stationary phase culture, 10 μg/mL, 7 days, FIG. 17A) was “about 71%”, the viability at 50 µM ([2]; read-out: Activity against persisters (residual viable cell percentage)) was 77% and the viability at 20 µM ([2]; read-out: Residual viable cells (%) 20 μM (epifluorescence microscope counting)) was 77%. For the same molecule, the viability at 50 µM ([2]; read-out: Residual viable cells (%) 50 μM (epifluorescence microscope counting)) was 77%, the viability at 50 µM ([2]; read-out: Residual viable cells (epifluorescence microscope counting)) was 77% and the “Live cell %, ten day old stationary phase culture (in brackets)” value [3, 9] was 72%. The viability at 10 µg/mL ([3]; Borreliella burgdorferi, 168 h, read-out: Live Cell % (residual viable B. burgdorferi), ten-day-old stationary phase culture enriched with micro-colonies, 10 μg/mL each drug, 7 days) was 72%, the “Residual viable cells (SYBR Green I/PI assay)” value ([4]; 50 μM, seven day old stationary phase culture, 7 days) was 68% and the viability at 20 µM ([4]; Borreliella burgdorferi, 168 h, read-out: Residual viable cells (%) 20 μM (SYBR Green I/PI assay), 20 μM, seven day old stationary phase, 7 days) was 76%. For the same molecule, the viability at 50 µM ([4]; Borreliella burgdorferi, 168 h, read-out: Residual viable cells (SYBR Green I/PI assay), 50 μM, seven day old stationary phase culture, 7 days) was 75%, the viability at 50 µM [5] was 75% and the “Live cell %, round body form” value [6, 9] was 49%. The viability at 50 µM ([6]; Borreliella burgdorferi, 168 h, read-out: Residual viable cells (SYBR Green I/PI assay)) was 42%, the “Ratios of green/red fluorescence, Primary screening” value ([6]; round body form, 50 μM, 7 days) was 6.34 and the “Ratios of green/red fluorescence, Rescreening (first column)” value ([6]; round body form, 50 μM, 7 days) was 6.39. The “Ratios of green/red fluorescence, Rescreening (second column)” value ([6]; round body form, 50 μM, 7 days) was 6.67, the “Ratio of Green/Red fluorescence, Primary screening” value [7, 10] was 7.62 and the “Ratio of Green/Red fluorescence, Rescreening (first column)” value [7, 10] was 7.35. The “Ratio of Green/Red fluorescence, Rescreening (second column)” value [7, 10] was 7.58, the viability at 50 µM ([7]; Borreliella burgdorferi, 168 h, read-out: Residual viable cells (regression equation, SYBR Green I/PI assay)) was 67% and the “G/R ratio immediately after treatment” value ([8]; 7 days) was 6.71. The “G/R ratio after 7 day subculture” value [8, 11] was 6.23, the “G/R ratio after 15 day subculture” value [8, 11] was 6.89 and the “Spirochetes after 7 day subculture (microscope counting)” value [8, 11] was 9 × 10^5. The “Spirochetes after 15 day subculture (microscope counting)” value [8, 11] was ~5×10^6, the “Spirochetes after 15 day subculture (microscope counting)” value ([8]; 7 days treatment, then subculture, listed as Dox) was 4 × 10^6 and the viability at 10 µg/mL ([8]; Borreliella burgdorferi, 168 h, seven-day-old culture, 7 days, read-out: Residual viable cells (epifluorescence microscope counting)) was 67%.
